Data as given in patent US8445405B2, “Synergistic herbicidal compositions containing aminopyralid, 2,4-dichlorophenoxyacetic acid and atrazine” (Dow AgroSciences, LLC., priority 2010, dated 2013).

What was measured:
[1] = tested on: bur-cucumber (Sicyos angulatus, SIYAN); test: Field trial, post-emergence weed control in corn (Jalisco, Mexico), visual rating; type: in vivo
Protocol: (§1) These trials were conducted under normal corn crop conditions. Trial sites were located in commercially grown corn in the Jalisco (Mexico) area. The corn crop was grown using normal cultural practices for fertilization, seeding, and maintenance to ensure good growth of the crop and the weeds. The trials were conducted using normal research methodology. Trial plots were between 6 to 7 meters (m) wide by 10 m long. All treatments were applied using a randomized complete block trial design with 3 or 4 replications per treatment. The trial sites had naturally occurring populations of weeds. The weed spectrum included, but was not limited to, redroot pigweed (Amaranthus retroflexus, AMARE), bur-cucumber (Sicyos angulatus, SIYAN). Treatments consisted of tank mixes of Tronador™ herbicide and atrazine applied in water. The application volumes were between 250 to 300 liters per hectare (L/ha). All applications were made using precision gas hand sprayers using a 3 m boom using flat fan 8002 nozzles to broadcast the treatments on the weeds.
(§2) The treated plots and control plots were rated blind at various intervals after application. Ratings were based on Percent (%) Visual weed control, where 0 corresponds to no injury and 100 corresponds to complete kill.
(§3) Colby's equation was used to determine the herbicidal effects expected from the mixtures (Colby, S. R. Weeds 1967, 15, 20-22. Calculation of the synergistic and antagonistic response of herbicide combinations).
(§4) The following equation was used to calculate the expected activity of mixtures containing two active ingredients, A and B: Expected=A+B−(A×B/100)
(§5) A=observed efficacy of active ingredient A at the same concentration as used in the mixture.
(§6) B=observed efficacy of active ingredient B at the same concentration as used in the mixture.

[2] = tested on: redroot pigweed (Amaranthus retroflexus, AMARE); test: as above; type: in vivo
Protocol: as §1, §2, §3, §4, §5, §6

[3] = 15 days after application, Atrazine 450 g ai/ha
[4] = 15 days after application, Atrazine 900 g ai/ha
[5] = 30 days after application, Atrazine 450 g ai/ha
[6] = 30 days after application, Atrazine 900 g ai/ha
[7] = 45 days after application, Atrazine 450 g ai/ha
[8] = 45 days after application, Atrazine 900 g ai/ha
[9] = 60 days after application, Atrazine 450 g ai/ha
[10] = 60 days after application, Atrazine 900 g ai/ha

## CCNc1nc(Cl)nc(NC(C)C)n1 [Atrazine, 6-chloro-N-ethyl-N′-(1-methylethyl)-1,3,5-triazine-2,4-diamine]
[1]; [3]
  SIYAN Obs - Percent control observed: 27.5%
[1]; [4]
  SIYAN Obs - Percent control observed: 42.5%
[1]; [5]
  SIYAN Obs - Percent control observed: 36.3%
[1]; [6]
  SIYAN Obs - Percent control observed: 60%
[1]; [7]
  SIYAN Obs - Percent control observed: 56.3%
[1]; [8]
  SIYAN Obs - Percent control observed: 66.3%
[1]; [9]
  SIYAN Obs - Percent control observed: 53.8%
[1]; [10]
  SIYAN Obs - Percent control observed: 65%
[2]; [3]
  AMARE Obs - Percent control observed: 35%
[2]; [4]
  AMARE Obs - Percent control observed: 46.3%
[2]; [5]
  AMARE Obs - Percent control observed: 77.5%
[2]; [6]
  AMARE Obs - Percent control observed: 82.5%
[2]; [7]
  AMARE Obs - Percent control observed: 91.3%
[2]; [8]
  AMARE Obs - Percent control observed: 94.8%
[2]; [9]
  AMARE Obs - Percent control observed: 91.3%
[2]; [10]
  AMARE Obs - Percent control observed: 97%
